How the values were obtained:
Assay type in all cases: cell-based
[1] = tested on: HCV genotype 1b replicon; test: Anti-HCV-1b replicon activity (luciferase, Bright-Glo); conditions: Hepatitis C virus, Huh-7, 72 h, read-out: EC50 against HCV-1b replicon
Description: (§1) Each of the compounds prepared in the above examples of the present invention was dissolved at 10 mM in DMSO, then diluted to 50 μM with DMEM complete medium, then diluted to 20 nM with complete medium containing 0.5% DMSO, and then serially diluted by 3-fold, to obtain a total of 10 concentrations.
(§2) HCV 1b replicon cells, i.e., Huh7 cell line stably transfected with HCV genotype 1b replicon, were provided by WuXi AppTec (Shanghai) Co., Ltd. Specific preparation methods of Huh7 lb replicon cell system can be found in Lohmann V, Korner F, Koch J, Herian U, Theilmann L, Bartenschlager R., Replication of subgenomic hepatitis C virus RNAs in a hepatoma cell line, Science 285 (5424): 110-113 (1999).
(§3) 1) Preparation of compounds: adding 75 μl of the compounds of the present invention at the above concentration gradient to a 96-well plate using POD810 system, with each concentration for each compound in duplicate;
(§4) 2) Preparation of cells: collecting HCV 1b replicon cells in logarithmic phase and resuspending them in DMEM complete medium, and then adding 75 μl of the cell suspension to each well of the above 96-well plate (8×10^3 cells/well); at the same time, establishing zero percent effect (ZPE) control group and hundred percent effect (HPE) control group, with ZPE group using complete culture medium containing 0.5% DMSO instead of the compound, and the HPE group merely containing DMEM medium in the wells.
(§5) 3) Cell culture: placing the 96-well plate in a 37° C., 5% CO2 incubator and culturing for 3 days.
(§6) 5) Anti-HCV replicon activity assay: adding luciferase luminescence substrate Bright-Glo to each well, and detecting luminescence signal values using the multimode microplate reader within 5 min, with the raw data (RLU) being used for calculation of the anti-HCV activities of the compounds;
(§7) 6) Data processing: processing the raw data using the following formula into the inhibition percentage of the compound against HCV replicon (Inhibition %) and the percentage of cell viability (Viability %): Inhibition %=(RLUZPE−RLUCPD)/(RLUZPE−RLUHPE)×100 Viability %=(RFUCPD−RFUHPE)/(RFUZPE−RFUHPE)×100 wherein CPD: the fluorescence signal value of the well of the compound; ZPE (zero percent effect): the fluorescence signal value of the zero percent effect control; HPE (hundred percent effect): the fluorescence signal value of the hundred percent effect control.
(§8) The Inhibition % and Viability % were introduced into GraphPad Prism software for data processing, respectively, to obtain the half effective concentration EC50 of the compound against HCV replicon and the half cytotoxic concentration CC50.

[2] = Cell viability test (CellTiter-Fluor) in HCV 1b replicon cells; conditions: human, Huh7 cells stably transfected with HCV genotype 1b replicon; HCV 1b replicon Huh7 cells, 3 days culture; read-out: CC50 (half cytotoxic concentration)
Description: as §1, §2, §3, §4, §5
(§9) 4) Cell viability test: after adding detection reagent for fluorescence assay of cell growth to each well and culturing the cells in a 37° C., 5% CO2 incubator for one hour, detecting the fluorescence signal values using the multimode microplate reader, with the raw data (RFU) being used for calculation of the cytotoxicity of the compounds;
as §7, §8

[3] = tested on: HCV genotype 1a replicon; test: Anti-HCV-1a replicon activity (luciferase, Bright-Glo); conditions: Hepatitis C virus, Huh-7, 72 h, read-out: EC50 against HCV-1a replicon
Description: as §3, §4, §5, §6, §7, §8
(§10) HCV 1a replicon cells, i.e., Huh7 cell line stably transfected with HCV genotype 1a replicon (provided by WuXi AppTec (Shanghai) Co., Ltd.) were used as the experimental cells. As described above for the HCV 1b replicon cell system, the HCV genotype 1a replicon cell systems were similarly prepared.
(§11) The anti-HCV-1a activities of the compounds of the present invention were tested according to the method for testing the anti-HCV-1b replicon activity in Experimental Example 1.

[4] = Cell viability test (CellTiter-Fluor) in HCV 1a replicon cells; conditions: human, Huh7 cells stably transfected with HCV genotype 1a replicon; HCV 1a replicon Huh7 cells, 3 days culture; read-out: CC50 (half cytotoxic concentration)
Description: as §9, §7, §8, §10, §11

Compound	EC50 [1]	CC50 at 3 days [2]	EC50 [3]	CC50 at 3 days [4]
COC(=O)N[C@H](C(=O)N1CC2(CC2)C[C@H]1c1nc(-c2ccc3c(c2)C(F)(F)C(F)(F)c2cc(-c4ccc5nc([C@@H]6CCCN6C(=O)[C@@H](NC(=O)OC)C(C)C)[nH]c5c4)ccc2-3)c[nH]1)C(C)C [Example 12, Methyl N-((2S)-1-((S)-2-(6-(7-((S)-2-(5-((S)-2-((methoxycarbonyl)amino)-3-methylbutanoyl)-5-azaspiro[2.4]heptan-6-yl)-1H-imidazol-5-yl)-9,9,10,10-tetrafluoro-dihydrophenanthren-2-yl)-1H-benzo[d]imidazol-2-yl)pyrrolidin-1-yl)-3-methyl-1-oxobutan-2-yl)carbamate]	8 pM	> 10000 pM	61 pM	> 10000 pM
COC(=O)N[C@H](C(=O)N1CC2(C[C@H]1c1ncc(-c3ccc4c(c3)C(F)(F)C(F)(F)c3cc(-c5ccc6nc([C@@H]7CCCN7C(=O)[C@@H](NC(=O)OC)C(C)C)[nH]c6c5)ccc3-4)[nH]1)OCCO2)C(C)C [Example 11, Methyl N-((2S)-1-((S)-2-(6-(7-((S)-2-(7-((S)-2-((methoxycarbonyl)amino)-3-methylbutanoyl)-1,4-dioxa-7-azaspiro[4.4]nonan-8-yl)-1H-imidazol-5-yl)-9,9,10,10-tetrafluoro-9,10-dihydrophenanthren-2-yl)-1H-benzo[d]imidazol-2-yl)pyrrolidin-1-yl)-3-methyl-1-oxobutan-2-yl)carbamate]	6 pM	> 10000 pM	79 pM	> 10000 pM

— patent US9512108B2, “9,9,10,10-Tetrafluoro-9,10-dihydrophenanthrene hepatitis C virus inhibitor and application thereof” (NANJING SANHOME PHARMACEUTICAL CO., LTD., priority 2013, dated 2016)
